These results are taken from patent publication US12012392B2, “Sulfonamide carboxamide compounds” (Inflazome Limited, priority 2017, dated 2024).

Data set [1] can be described thus: PK protocol (intravenous and oral administration). The class given is in vivo, male Sprague Dawley rats. As to conditions: male, Sprague Dawley, plasma, rat, intravenous; for Vd: read-out: Vdss. Here is the method:
Pharmacokinetic parameters were determined in male Sprague Dawley rats (Charles River, UK, 250-350 g; or Vital River Laboratory Animal Technology Co Ltd, Beijing, China, 7-9 weeks old). Animals were individually housed during the study and maintained under a 12 h light/dark cycle. Animals had free access to food and water except that some orally dosed animals were food deprived overnight prior to the study. For intravenous administration, compounds were formulated as a solution in water or DMSO:PBS [10:90] in 2 mL/kg dosing volume and administered via tail vein. For oral administration, compounds were formulated as a solution in water or DMSO:water [10:90] in 5 mL/kg dosing volume and administered orally.
Serial blood samples (about 120-300 μL) were taken from each animal at each of 8 time-points post dose (0.083, 0.25, 0.5, 1, 2, 4, 8 and 24 h) or at each of 12 time-points post dose (0.03, 0.1, 0.17, 0.25, 0.5, 1, 2, 4, 6, 8, 12 and 24 h) or pre-dose and at each of 9 time-points post dose (0.25, 0.5, 1, 2, 4, 6, 8, 12 and 24 h). Samples were held on ice for no longer than 30 minutes before centrifugation (10,000 rpm (8,385 g) for 3 minutes; or 5,696 rpm (3,000 g) for 15 minutes) for plasma generation. Plasma was frozen on dry ice prior to bioanalysis. PK parameters were generated from LC-MS/MS data using Dotmatics or Phoenix WinNonlin 6.3 software.

Data set [2] deals with T1, NLRP3 (Homo sapiens, UniProt Q96P20). Kind of data set: THP-1 cells pyroptosis assay. The class given is cell-based. The arrangement: Seed THP-1 cells (25,000 cells/well) containing 1.0 μg/ml LPS; host or cells: THP-1 cells, LPS-primed, nigericin-stimulated. As to conditions: LPS 1 μg/ml, nigericin 5 μM, resazurin read-out. In short, it runs like this:
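THP-1 cells (25,000/well) primed with 1 μg/ml LPS in serum-free RPMI, given compound (8-point half-log, 10 μM top, 0.1% DMSO) for 3 hrs, then nigericin 5 μM for 1 hr at 37° C. Viability of remaining cells read by resazurin (100 μM, 1–2 hrs) fluorescence; IC50 from 4-parameter fit.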

Data set [3] addresses T1, NLRP3. In words: Human whole blood IL1β release assay. As to conditions: LPS 1 μg/ml, nigericin 10 μM, IL-1β AlphaLisa, read-out: HWB IC50. The arrangement: Plate out 80 μl of whole blood containing 1 μg/ml of LPS; from tissue; host or cells: human whole blood from healthy donors, LPS-primed, nigericin-stimulated. In kind it is cell-based. On the procedure: For systemic delivery, the ability to inhibit NLRP3 when the compounds are present within the bloodstream is of great importance. For this reason, the NLRP3 inhibitory activity of a number of compounds in human whole blood was investigated in accordance with the following protocol.
Human whole blood in Li-heparin tubes was obtained from healthy donors from a volunteer donor panel. • 1. Plate out 80 μl of whole blood containing 1 μg/ml of LPS in 96-well, clear bottom cell culture plate (Corning #3585) • 2. Add […] compound (8 points half-log dilution with 10 μM top dose) or vehicle (DMSO 0.1% FAC) to the appropriate wells • 3. Incubate for 3 hrs at 37° C., 5% CO2 • 4. Add 10 μl Nigericin (Sigma #N7143) (10 μM FAC) to all wells • 5. Incubate for 1 hr at 37° C., 5 CO2 • 6. At the end of the incubation period, spin plates at 300×g for 5 mins to pellet cells and remove 20 μl of supernatant and add to 96-well v-bottom plates for […] analysis (note: these plates containing the supernatants can be stored at −80° C. to be analysed at a later date) • 7. IL-1β was measured according to the manufacturer protocol (Perkin Elmer-AlphaLisa IL-1 Kit AL220F-5000) • 8. IC50 data is fitted to anon-linear regression equation (log inhibitor vs response-variable slope 4-parameters)
In general terms: In Alpha technology, singlet oxygen from a donor bead excites a nearby acceptor bead.

SMILES strings stand for the structures. Where two headings read alike, the source gives them in different places.

T1 sequence (Q96P20 whole entry): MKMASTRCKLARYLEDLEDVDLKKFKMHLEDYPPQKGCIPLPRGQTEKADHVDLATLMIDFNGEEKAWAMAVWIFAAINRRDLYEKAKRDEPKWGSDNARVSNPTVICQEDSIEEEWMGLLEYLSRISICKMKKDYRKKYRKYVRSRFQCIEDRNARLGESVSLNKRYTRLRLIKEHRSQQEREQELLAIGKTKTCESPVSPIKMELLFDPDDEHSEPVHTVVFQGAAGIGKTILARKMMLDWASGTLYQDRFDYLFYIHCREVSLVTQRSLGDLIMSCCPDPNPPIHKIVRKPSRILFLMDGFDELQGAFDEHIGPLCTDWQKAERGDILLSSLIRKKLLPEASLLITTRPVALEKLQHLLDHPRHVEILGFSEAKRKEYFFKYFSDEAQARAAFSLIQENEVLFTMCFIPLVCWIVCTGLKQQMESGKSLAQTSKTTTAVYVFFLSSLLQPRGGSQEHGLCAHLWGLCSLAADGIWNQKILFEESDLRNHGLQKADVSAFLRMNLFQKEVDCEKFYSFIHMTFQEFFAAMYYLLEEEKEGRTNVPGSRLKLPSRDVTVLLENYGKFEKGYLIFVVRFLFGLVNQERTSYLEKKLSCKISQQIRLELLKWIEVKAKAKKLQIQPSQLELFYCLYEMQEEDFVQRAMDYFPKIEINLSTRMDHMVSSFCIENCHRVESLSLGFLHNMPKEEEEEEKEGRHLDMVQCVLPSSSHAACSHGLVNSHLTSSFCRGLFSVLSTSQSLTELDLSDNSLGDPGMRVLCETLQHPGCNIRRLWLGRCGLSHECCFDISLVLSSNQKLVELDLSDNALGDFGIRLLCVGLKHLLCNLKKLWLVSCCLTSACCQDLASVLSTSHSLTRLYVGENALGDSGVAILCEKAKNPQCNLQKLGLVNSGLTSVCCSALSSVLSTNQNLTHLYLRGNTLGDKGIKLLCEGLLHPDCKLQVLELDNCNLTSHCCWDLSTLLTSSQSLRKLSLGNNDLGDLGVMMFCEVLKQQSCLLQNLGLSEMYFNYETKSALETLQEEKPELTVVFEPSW

The AUC is concentration integrated over time. A higher AUC goes with more exposure. One may read the half-life as how long it takes for the measured level to halve. A higher half-life goes with slow loss. A word on the IC50: it is the midpoint of a concentration-inhibition curve. In the case of `CC(O)C(C)n1ccc(S(=O)(=O)NC(=O)Nc2c3c(cc4c2CCC4)CCC3)n1` (racemic) [Example 23, N-((1,2,3,5,6,7-Hexahydro-s-indacen-4-yl)carbamoyl)-1-(3-hydroxybutan-2-yl)-1H-pyrazole-3-sulfonamide], in data set [1] (dose 1 mg/kg), the AUC is 20100 ng·h/mL, the clearance is 0.8 mL/min/kg, the half-life is 2.6 h and the Vd came out at 0.12 L/kg. Besides, the IC50 at NLRP3 [2] is 40 to 160 nM. Also, the IC50 on NLRP3 [3] is below 400 nM.
Take `CC(O)C(C)n1ccc(S(=O)(=O)NC(=O)Nc2c3c(cc4c2CCC4)CCC3)n1` (racemic) [Example 26, N-((1,2,3,5,6,7-Hexahydro-s-indacen-4-yl)carbamoyl)-1-(3-hydroxybutan-2-yl)-1H-pyrazole-3-sulfonamide]: in data set [1] (dose 1.74 mg/kg), the AUC is 8060 ng·h/mL, the clearance is 4.2 mL/min/kg, the half-life was 3.6 h and the Vd was 0.6 L/kg. Also, the half-maximal inhibitory concentration (IC50) at NLRP3 [2] lay in the range of 40 to 160 nM. On NLRP3 [3], the IC50 is below 400 nM.
`O=C(Nc1c2c(cc3c1CCC3)CCC2)NS(=O)(=O)c1ccn(C2CCOC2)n1` (stereo not shown) [Example 1, N-((1,2,3,5,6,7-Hexahydro-s-indacen-4-yl)carbamoyl)-1-(tetrahydrofuran-3-yl)-1H-pyrazole-3-sulfonamide]: in data set [1] (dose 1 mg/kg), the area under the curve (AUC) worked out at 8620 ng·h/mL, the clearance was 1.9 mL/min/kg, the half-life is 3.4 h and the Vd stood at 0.43 L/kg. Moreover, on NLRP3 [2], the IC50 lay within 160 to 640 nM. Further, the IC50 on NLRP3 [3] fell in the range of 800 to 1600 nM.
Turning to `COCCn1ccc(S(=O)(=O)NC(=O)Nc2c3c(cc4c2CCC4)CCC3)n1` [Example 2, N-((1,2,3,5,6,7-Hexahydro-s-indacen-4-yl)carbamoyl)-1-(2-methoxyethyl)-1H-pyrazole-3-sulfonamide], in data set [1] (dose 1 mg/kg), the AUC is 1030 ng·h/mL, the clearance was determined as 16.2 mL/min/kg, the half-life is 0.3 h and the Vd is 0.3 L/kg. Besides, the concentration for half-maximal inhibition (IC50) at NLRP3 [2] fell in the range of 160 to 640 nM. Also, the concentration for half-maximal inhibition (IC50) on NLRP3 [3] fell in the range of 800 to 1600 nM.
Turning to `Cn1nc(S(=O)(=O)NC(=O)Nc2c3c(cc4c2CCC4)CCC3)cc1C1(F)COC1` [Example 49, 5-(3-Fluorooxetan-3-yl)-N-((1,2,3,5,6,7-hexahydro-s-indacen-4-yl)carbamoyl)-1-methyl-1H-pyrazole-3-sulfonamide], the IC50 at NLRP3 [2] fell in the range of 160 to 640 nM; on NLRP3 [3], 800 to 1600 nM.
Turning to `Cn1nc(S(=O)(=O)NC(=O)Nc2c3c(cc4c2CCC4)CCC3)cc1CC(C)(C)O` [Example 50, N-((1,2,3,5,6,7-Hexahydro-s-indacen-4-yl)carbamoyl)-5-(2-hydroxy-2-methylpropyl)-1-methyl-1H-pyrazole-3-sulfonamide], the results for the 50% inhibitory concentration (IC50) on NLRP3 [2] and at NLRP3 [3] were 40 to 160 nM and 800 to 1600 nM, respectively.
Taken in the same sequence, the figures for `Cn1nc(S(=O)(=O)NC(=O)Nc2c3c(cc4c2CCC4)CCC3)cc1C1(O)CCOCC1` [Example 55, N-((1,2,3,5,6,7-Hexahydro-s-indacen-4-yl)carbamoyl)-5-(4-hydroxytetrahydro-2H-pyran-4-yl)-1-methyl-1H-pyrazole-3-sulfonamide] were 160 to 640 nM and 800 to 1600 nM.
Take `Cn1nc(S(=O)(=O)NC(=O)Nc2c3c(cc4c2CCC4)CCC3)cc1C(=O)N(CCO)CCO` [Example 61, 3-(N-((1,2,3,5,6,7-Hexahydro-s-indacen-4-yl)carbamoyl)sulfamoyl)-N,N-bis(2-hydroxyethyl)-1-methyl-1H-pyrazole-5-carboxamide]: the figures for the IC50 on NLRP3 [2] and at NLRP3 [3] were 160 to 640 nM and below 400 nM, respectively.
For `CN(CCCO)C(=O)c1cc(S(=O)(=O)NC(=O)Nc2c3c(cc4c2CCC4)CCC3)nn1C` [Example 64, 3-(N-((1,2,3,5,6,7-Hexahydro-s-indacen-4-yl)carbamoyl)sulfamoyl)-N-(3-hydroxypropyl)-N,1-dimethyl-1H-pyrazole-5-carboxamide], the results for the IC50 on NLRP3 [2] and at NLRP3 [3] were 160 to 640 nM and 1600 to 3200 nM, respectively.
Consider `CCN(CCO)C(=O)c1cc(S(=O)(=O)NC(=O)Nc2c3c(cc4c2CCC4)CCC3)nn1C` [Example 66, N-Ethyl-3-(N-((1,2,3,5,6,7-hexahydro-s-indacen-4-yl)carbamoyl)sulfamoyl)-N-(2-hydroxyethyl)-1-methyl-1H-pyrazole-5-carboxamide], for which the IC50 on NLRP3 [2] lay within 160 to 640 nM; on NLRP3 [3] it was 800 to 1600 nM.
With `CC(C)c1cc(Cl)cc(C(C)C)c1NC(=O)NS(=O)(=O)c1cc(C(=O)N(C)CCO)n(C)n1` [Example 82, 3-(N-((4-Chloro-2,6-diisopropylphenyl)carbamoyl)sulfamoyl)-N-(2-hydroxyethyl)-N,1-dimethyl-1H-pyrazole-5-carboxamide], the IC50 lay in the range of 40 to 160 nM at NLRP3 [2] and 800 to 1600 nM on NLRP3 [3].
As to `COc1cc(-c2ccc3c(c2NC(=O)NS(=O)(=O)c2ccn(C(C)(C)CN4CC(OC)C4)n2)CCC3)ccn1` [Example 90], the results for the IC50 on NLRP3 [2] and on NLRP3 [3] were below 40 nM and below 400 nM, respectively.
For the compound `N#Cc1cc(-c2ccc3c(c2NC(=O)NS(=O)(=O)c2ccn(C4CCOC4)n2)CCC3)ccn1` (stereo not shown) [Example 91], the half-maximal inhibitory concentration (IC50) at NLRP3 [2] was below 40 nM; on NLRP3 [3] it was below 400 nM.
For the compound `C[C@@H](O)Cn1ccc(S(=O)(=O)NC(=O)Nc2c(-c3ccnc(C#N)c3)ccc3c2CCC3)n1` [Example 92], the IC50 at NLRP3 [2] is below 40 nM; at NLRP3 [3], below 400 nM.
Consider `CC(C)(O)Cn1ccc(S(=O)(=O)NC(=O)Nc2c(-c3ccnc(C#N)c3)ccc3c2CCC3)n1` [Example 93], for which the IC50 at NLRP3 [2] was below 40 nM; on NLRP3 [3], below 400 nM.
Taken in the same sequence, the figures for `COc1cc(-c2ccc3c(c2NC(=O)NS(=O)(=O)c2ccn(C[C@@H](C)O)n2)CCC3)ccn1` [Example 94] were below 40 nM and below 400 nM.
As for `COc1cc(-c2ccc3c(c2NC(=O)NS(=O)(=O)c2ccn(CC(C)(C)OC)n2)CCC3)ccn1` [Example 95], the IC50 at NLRP3 [2] was below 40 nM; on NLRP3 [3], below 400 nM.
In the case of `COc1cc(-c2ccc3c(c2NC(=O)NS(=O)(=O)c2ccn(CC(C)(C)O)n2)CCC3)ccn1` [Example 96], the concentration for half-maximal inhibition (IC50) was below 40 nM on NLRP3 [2] and below 400 nM at NLRP3 [3].
Regarding `COc1cc(-c2ccc3c(c2NC(=O)NS(=O)(=O)c2ccn(C4CCOC4)n2)CCC3)ccn1` (stereo not shown) [Example 97], the IC50 at NLRP3 [2] is 40 to 160 nM; on NLRP3 [3], below 400 nM.
With `COc1cc(-c2ccc3c(c2NC(=O)NS(=O)(=O)c2cc(C4(OC)COC4)n(C)n2)CCC3)ccn1` [Example 98], the concentration for half-maximal inhibition (IC50) at NLRP3 [2] is below 40 nM; on NLRP3 [3], below 400 nM.
For the compound `C[C@@H](O)Cn1cc(S(=O)(=O)NC(=O)Nc2c3c(cc4c2CCC4)CCC3)nn1` [Example 103], the IC50 was in the range of 160 to 640 nM at NLRP3 [2] and 800 to 1600 nM at NLRP3 [3].
Regarding `O=C(Nc1c2c(cc3c1CCC3)CCC2)NS(=O)(=O)c1ccn(C[C@@H](O)CO)n1` [Example 104], the half-maximal inhibitory concentration (IC50) on NLRP3 [2] was 160 to 640 nM; at NLRP3 [3] it was 800 to 1600 nM.
Take `CC(C)(O)Cn1ccc(S(=O)(=O)NC(=O)Nc2c3c(c(F)c4c2CCC4)CCC3)n1` [Example 106]: the IC50 is below 40 nM at NLRP3 [2] and 400 to 800 nM at NLRP3 [3].
For the compound `COC1CN(CC(C)(C)n2ccc(S(=O)(=O)NC(=O)Nc3c4c(cc5c3CCC5)CCC4)n2)C1` [Example 107], the IC50 at NLRP3 [2] was 40 to 160 nM; on NLRP3 [3], 800 to 1600 nM.
